ChEMBL document CHEMBL2069189, “Discovery of checkpoint kinase inhibitor (S)-5-(3-fluorophenyl)-N-(piperidin-3-yl)-3-ureidothiophene-2-carboxamide (AZD7762) by structure-based design and optimization of thiophenecarboxamide ureas” (J Med Chem, 2012)

How the values were obtained:
[1] = Lipophilicity, log D of the compound; type: physicochemical; conditions: octanol/water
[2] = Fraction unbound in human plasma; type: ADME, cell-free
[3] = biological target: T1, Serine/threonine-protein kinase Chk1 (Homo sapiens, UniProt O14757); experiment: Inhibition of human recombinant CHK1 expressed in insect cells using biotinylaminohexanoyl-KKVSRSGLYRSPMPENLNRPR as substrate after 2 hrs by scintillation proximity assay
T1 sequence (O14757 whole entry): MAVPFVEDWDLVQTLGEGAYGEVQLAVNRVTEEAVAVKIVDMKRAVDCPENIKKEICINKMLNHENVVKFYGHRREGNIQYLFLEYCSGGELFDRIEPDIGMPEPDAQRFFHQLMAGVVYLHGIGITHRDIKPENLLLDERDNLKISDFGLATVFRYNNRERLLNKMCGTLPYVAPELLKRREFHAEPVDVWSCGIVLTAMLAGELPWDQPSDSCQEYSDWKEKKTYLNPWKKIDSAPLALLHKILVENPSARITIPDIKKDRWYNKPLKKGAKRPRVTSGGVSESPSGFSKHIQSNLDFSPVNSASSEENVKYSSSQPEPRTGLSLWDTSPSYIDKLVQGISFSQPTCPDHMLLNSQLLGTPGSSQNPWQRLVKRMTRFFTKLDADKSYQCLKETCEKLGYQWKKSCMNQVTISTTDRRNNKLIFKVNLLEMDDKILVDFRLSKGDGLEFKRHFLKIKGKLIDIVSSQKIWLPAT

[4] = Half life in nude mouse; type: ADME, organism-based; conditions: in vivo
[5] = Volume of distribution at steady state in nude mouse; type: ADME, organism-based; conditions: in vivo, read-out: Vdss
[6] = Clearance in nude mouse; type: ADME, organism-based; conditions: in vivo
[7] = AUC in nude mouse; type: ADME, organism-based; parameters: concentration or dose not given beside the values; conditions: plasma
[8] = biological target: Serine/threonine-protein kinase Chk2 (Homo sapiens, UniProt O96017); experiment: Inhibition of CHK2
Chain of Serine/threonine-protein kinase Chk2 (O96017 whole entry): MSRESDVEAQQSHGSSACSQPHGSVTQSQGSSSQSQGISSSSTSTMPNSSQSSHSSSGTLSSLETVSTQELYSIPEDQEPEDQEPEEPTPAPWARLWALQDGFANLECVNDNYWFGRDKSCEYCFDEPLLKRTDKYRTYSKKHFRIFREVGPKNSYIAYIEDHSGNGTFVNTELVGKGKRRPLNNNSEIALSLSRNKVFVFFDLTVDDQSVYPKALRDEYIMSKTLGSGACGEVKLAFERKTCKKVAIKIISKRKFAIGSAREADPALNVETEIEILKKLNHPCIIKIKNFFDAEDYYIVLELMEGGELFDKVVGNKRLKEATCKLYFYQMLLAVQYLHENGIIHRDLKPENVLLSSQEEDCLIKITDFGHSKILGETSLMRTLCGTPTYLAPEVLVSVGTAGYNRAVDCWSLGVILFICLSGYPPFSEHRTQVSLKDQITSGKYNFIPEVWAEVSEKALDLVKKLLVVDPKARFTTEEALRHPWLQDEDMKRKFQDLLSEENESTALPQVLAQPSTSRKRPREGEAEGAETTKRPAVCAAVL

[9] = Clearance in dog; type: ADME, organism-based, Canis lupus familiaris; conditions: in vivo
CYP450 = CYP450 (Homo sapiens, UniProt P04798+P05177+P05181+P08684+P10632+P10635+P11509+P11712+P13584+P20813+P20815+P20853+P24462+P24903+P33260+P33261+P51589+P78329+P98187+Q02928+Q08477+Q16678+Q16696+Q5TCH4+Q6VVX0+Q7Z449+Q8TAV3+Q96SQ9+Q9HB55); experiment: Inhibition of CYP450; type: ADME
[10] = Half life in rat; type: ADME, organism-based; conditions: in vivo
[11] = Thermodynamic solubility of the compound in 0.1 M phosphate buffer at pH 7.4; type: physicochemical; conditions: read-out: Therm_solubility
[12] = Half life in dog; type: ADME, organism-based, Canis lupus familiaris; conditions: in vivo
[13] = Clearance in rat; type: ADME, organism-based; conditions: in vivo

IC50 [3] [nM]	half-life [4] [h]	Vd [5] [L/kg]	clearance [6] [mL/min/kg]	AUC [7] [µM·h]	Structure (SMILES)	also measured
10					NC(=O)Nc1cc(-c2ccccc2)sc1C(=O)N[C@H]1CCCNC1	logD [1]: 1.04; fraction unbound [2]: 0.32
20					NC(=O)Nc1cc(-c2ccccc2F)sc1C(=O)N[C@H]1CCCNC1	
	1	2.8	33	3.8	Cl.NC(=O)Nc1sc(-c2cccc(F)c2)cc1C(=O)N[C@H]1CCCNC1	
	1.2	6.1	81	1.5	Cl.NC(=O)Nc1sc(-c2ccc(F)cc2)cc1C(=O)N[C@H]1CCCNC1	
6	1.2	8.5	86	1.46	Cl.NC(=O)Nc1cc(-c2ccc(F)cc2)sc1C(=O)N[C@H]1CCCNC1	
8					NC(=O)Nc1cc(-c2cccc(Cl)c2)sc1C(=O)N[C@H]1CCCNC1	
12					NC(=O)Nc1sc(-c2cc(F)cc(F)c2)cc1C(=O)N[C@H]1CCCNC1	
10					NC(=O)Nc1cc(-c2cc(F)cc(F)c2)sc1C(=O)N[C@H]1CCCNC1	
11	1.2	4.5	71	1.7	Cl.NC(=O)Nc1sc(-c2cccc(F)c2F)cc1C(=O)N[C@H]1CCCNC1	
20	1.4	7.7	85	1.4	Cl.NC(=O)Nc1cc(-c2cccc(F)c2F)sc1C(=O)N[C@H]1CCCNC1	
13					NC(=O)Nc1sc(-c2ccc(F)cc2F)cc1C(=O)N[C@H]1CCCNC1	
30					NC(=O)Nc1cc(-c2ccc(F)cc2F)sc1C(=O)N[C@H]1CCCNC1	
30					NC(=O)Nc1sc(-c2ccc(Cl)c(Cl)c2)cc1C(=O)N[C@H]1CCCNC1	
40					NC(=O)Nc1cc(-c2ccc(Cl)c(Cl)c2)sc1C(=O)N[C@H]1CCCNC1	
6					N#Cc1ccc(-c2cc(NC(N)=O)c(C(=O)N[C@H]3CCCNC3)s2)cc1	
9					N#Cc1cccc(-c2cc(C(=O)N[C@H]3CCCNC3)c(NC(N)=O)s2)c1	
7					N#Cc1cccc(-c2cc(NC(N)=O)c(C(=O)N[C@H]3CCCNC3)s2)c1	
					NC(=O)Nc1sc(-c2ccccc2)cc1C(=O)N[C@H]1CCCNC1	fraction unbound [2]: 0.077
	1.1	3.9	50	2.5	NC(=O)Nc1cc(-c2cccc(F)c2)sc1C(=O)N[C@H]1CCCNC1 [AZD-7762]	IC50 [8]: < 10 nM; clearance [9]: 35.7 mL/min/kg; IC50 (CYP450): > 10000 nM; half-life [10]: 5.2 h; logD [1]: 1.2; fraction unbound [2]: 0.26; solubility thermodynamic [11]: > 1000 µM; half-life [12]: 1.5 h; clearance [13]: 12.8 mL/min/kg
